pKi: −log10 of the molar value.

Chain of soluble human BACE1 catalytic domain (P56817 75-416): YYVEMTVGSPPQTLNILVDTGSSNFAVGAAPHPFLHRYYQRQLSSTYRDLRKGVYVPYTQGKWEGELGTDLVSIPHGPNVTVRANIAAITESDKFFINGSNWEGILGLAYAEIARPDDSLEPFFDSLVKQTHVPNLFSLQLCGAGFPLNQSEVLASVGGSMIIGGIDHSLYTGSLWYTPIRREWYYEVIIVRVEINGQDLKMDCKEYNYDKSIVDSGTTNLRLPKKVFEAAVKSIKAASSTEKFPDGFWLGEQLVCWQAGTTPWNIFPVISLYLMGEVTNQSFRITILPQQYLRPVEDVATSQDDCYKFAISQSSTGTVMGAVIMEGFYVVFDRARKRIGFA

One test has as its target soluble human BACE1 catalytic domain (Homo sapiens (Human), UniProt P56817). Kind of test: BACE1 HTRF FRET Assay. The following applies: read-out: BACE1 % Inh. at 1 μM, at 1 μM.
Take `CC1(C)C(=N)N[C@](C)(c2cc(-c3cccc(C#N)c3)ccc2F)CS1(=O)=O` [compound 10]: the inhibition at 1 µM was determined as 36%.

Still in this test, the particulars now being: read-out: BACE1 Ki.
A word on the pKi: it is −log10 of the Ki, conventionally taken in molar units. With `COc1cccc2cc(-c3cc(Cl)c([C@]4(C)CS(=O)(=O)[C@@](C)(CC5CCOCC5)C(=N)N4)s3)[nH]c12` [Example 27bx], the pKi was 7.74.
As for `CC1(C)C(=N)N[C@](C)(c2sc(-c3nnc(-c4ccc(Cl)cc4)o3)cc2F)CS1(=O)=O` [Example 27bf], the pKi is 7.51.
Same read-out and setting: as for `C[C@@]1(c2ccc(F)cc2F)CS(=O)(=O)[C@@](C)(c2cccc(C(F)(F)F)c2)C(=N)N1` [Example 32h-a], the figure is 6.44; as for `CC1(CC(F)(F)F)C(=N)N[C@](C)(c2sc(-c3ccc(F)c(C#N)c3)cc2F)CS1(=O)=O` (stereo partly drawn) [Example 27bm-a], 7.46; as for `CC1(C)C(=N)N[C@](C)(c2sc(-c3cc(F)cc(-c4cnco4)c3)cc2F)CS1(=O)=O` [Example 27at], 7.59.

Staying with this test, now noted: read-out: BACE1 Ki; Ki calculated from IC50 using the Cheng-Prusoff equation.
As to `CC1(C)C(=N)N[C@](C)(c2sc(-c3cncnc3)cc2Cl)CS1(=O)=O` [Example 24], the pKi is 6.41.
As for `C[C@@]1(c2cccc(F)c2)C(=N)N[C@](C)(c2cc(NC(=O)c3ccc(C(F)(F)F)cn3)ccc2F)CS1(=O)=O` [Example 9de-b], the pKi is 6.76.
On to `Cc1ccc(C(=O)Nc2cc(F)c(F)c([C@]3(C)CS(=O)(=O)C(C)(C)C(=N)N3)c2)nc1` [Example 9bh], for which the pKi was 7.89.
In the case of `C[C@@]1(c2cc(NC(=O)c3ccc(F)cn3)ccc2F)CS(=O)(=O)[C@](C)(CC(F)(F)F)C(=N)N1` [Example 9dp-b], the pKi was 7.13.
In the case of `CC1(C)C(=N)N[C@](C)(c2sc(-c3cncc(C#N)c3)cc2Cl)CS1(=O)=O` [Example 23], the pKi is 7.20.
For the compound `COc1cnc(C(=O)Nc2ccc(F)c([C@]3(C)CS(=O)(=O)[C@@](C)(C(C)C)C(=N)N3)c2)cn1` [Example 9ec-a], the pKi is 7.83.
For the compound `CC1(C)C(=N)N[C@](C)(c2cc(NC(=O)c3ncc(F)cc3F)cc(F)c2F)CS1(=O)=O` [Example 9ba], the pKi was 7.68.
Turning to `COc1ccc(C(=O)Nc2ccc(F)c([C@]3(C)CS(=O)(=O)C(C)(C)C(=N)N3)n2)nn1` [Example 9ci], the pKi is 6.66.
Take `COc1cnc(C(=O)Nc2ccc(F)c([C@]3(C)CS(=O)(=O)[C@](C)(c4ccc(F)cc4)C(=N)N3)c2)cn1` [Example 9dg-b]: the pKi was 6.73.
Take `CCC1C(=N)N[C@](C)(c2cc(NC(=O)c3ccc(F)cn3)ccc2F)CS1(=O)=O` (stereo partly drawn) [Example 9ca]: the pKi was 7.48.
For `CC1(C)C(=N)N[C@](C)(c2nc(NC(=O)c3ccc(C(F)(F)F)cn3)ccc2F)CS1(=O)=O` [Example 9cf], the pKi was 7.59.
Turning to `COc1cnc(C(=O)Nc2ccc(F)c([C@]3(C)CS(=O)(=O)[C@](C)(CC(F)(F)F)C(=N)N3)c2)cn1` [Example 9dr-b], the pKi is 6.86.

Staying with this test, now noted: read-out: BACE1 inhibition, % Inh. at 10 μM, at 10 μM.
For the compound `C[C@@]1(C2CC2)C(=N)N[C@](C)(c2cc([N+](=O)[O-])ccc2F)CS1(=O)=O` [Entry 30], the inhibition at 10 µM amounted to 30%.
For the compound `C[C@@]1(c2cccc(OCc3ccccc3)c2)C(=N)N[C@](C)(c2cc(F)ccc2F)CS1(=O)=O` [Example 34d-b], the inhibition at 10 µM is 16%.
On to `COc1cccc([C@]2(C)C(=N)N[C@](C)(c3cc(F)ccc3F)CS2(=O)=O)c1` [Example 32e-b], for which the inhibition at 10 µM stood at 22%.

The target in a further test is purified human autoBACE-2 (Homo sapiens (Human), UniProt Q9Y5Z0). The test is described as follows: BACE-2 Assay (BACE-HTRF assay). The format is biochemical. The following applies: Ki calculated from IC50 using the Cheng-Prusoff equation; read-out: BACE2 Ki. An outline of the steps: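 Endpoint proteolysis of a QSY7/europium FRET peptide by purified human autoBACE-2, 5% DMSO final, read by time-resolved fluorescence at 620 nm after 320 nm excitation.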
Chain of purified human autoBACE-2 (Q9Y5Z0 63-473): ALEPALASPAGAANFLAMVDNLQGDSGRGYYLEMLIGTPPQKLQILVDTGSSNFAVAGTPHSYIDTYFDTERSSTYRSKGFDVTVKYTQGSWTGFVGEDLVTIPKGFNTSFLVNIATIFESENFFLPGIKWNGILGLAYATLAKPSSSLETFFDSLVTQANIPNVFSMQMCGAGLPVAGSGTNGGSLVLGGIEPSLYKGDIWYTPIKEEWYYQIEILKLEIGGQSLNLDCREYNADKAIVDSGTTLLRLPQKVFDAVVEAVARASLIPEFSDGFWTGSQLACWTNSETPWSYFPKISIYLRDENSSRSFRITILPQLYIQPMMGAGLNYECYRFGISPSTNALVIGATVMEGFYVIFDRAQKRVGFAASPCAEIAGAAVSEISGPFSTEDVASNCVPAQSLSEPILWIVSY
For the compound `CC1(C)C(=N)N[C@](C)(c2sc(-c3cncnc3)cc2Cl)CS1(=O)=O` [Example 24], the pKi was 6.50.
As for `C[C@@]1(c2cccc(F)c2)C(=N)N[C@](C)(c2cc(NC(=O)c3ccc(C(F)(F)F)cn3)ccc2F)CS1(=O)=O` [Example 9de-b], the pKi is 6.15 to 7.00.
With `COc1cccc2cc(-c3cc(Cl)c([C@]4(C)CS(=O)(=O)[C@@](C)(CC5CCOCC5)C(=N)N4)s3)[nH]c12` [Example 27bx], the pKi was at least 8.00.
Regarding `Cc1ccc(C(=O)Nc2cc(F)c(F)c([C@]3(C)CS(=O)(=O)C(C)(C)C(=N)N3)c2)nc1` [Example 9bh], the pKi was 8.40.
As to `C[C@@]1(c2cc(NC(=O)c3ccc(F)cn3)ccc2F)CS(=O)(=O)[C@](C)(CC(F)(F)F)C(=N)N1` [Example 9dp-b], the pKi was 7.00 to 7.96.
As to `CC1(C)C(=N)N[C@](C)(c2sc(-c3cncc(C#N)c3)cc2Cl)CS1(=O)=O` [Example 23], the pKi is over 6.70.
Same read-out and setting: the value for `CC1(C)C(=N)N[C@](C)(c2sc(-c3nnc(-c4ccc(Cl)cc4)o3)cc2F)CS1(=O)=O` [Example 27bf] was at least 7.70.
On the same count and under the same terms, the value for `COc1cnc(C(=O)Nc2ccc(F)c([C@]3(C)CS(=O)(=O)[C@@](C)(C(C)C)C(=N)N3)c2)cn1` [Example 9ec-a] was 7.00 to 7.96; that for `CC1(C)C(=N)N[C@](C)(c2cc(NC(=O)c3ncc(F)cc3F)cc(F)c2F)CS1(=O)=O` [Example 9ba] was 9.00; that for `C[C@@]1(c2ccc(F)cc2F)CS(=O)(=O)[C@@](C)(c2cccc(C(F)(F)F)c2)C(=N)N1` [Example 32h-a] was 6.90.
Same read-out and setting: the value for `COc1ccc(C(=O)Nc2ccc(F)c([C@]3(C)CS(=O)(=O)C(C)(C)C(=N)N3)n2)nn1` [Example 9ci] was 7.36; that for `COc1cnc(C(=O)Nc2ccc(F)c([C@]3(C)CS(=O)(=O)[C@](C)(c4ccc(F)cc4)C(=N)N3)c2)cn1` [Example 9dg-b] was 6.15 to 7.00.
In the case of `CC1(C)C(=N)N[C@](C)(c2cc(-c3cccc(C#N)c3)ccc2F)CS1(=O)=O` [compound 10], the pKi is over 6.70.
Turning to `CCC1C(=N)N[C@](C)(c2cc(NC(=O)c3ccc(F)cn3)ccc2F)CS1(=O)=O` (stereo partly drawn) [Example 9ca], the negative-log Ki (pKi) was 8.05.
With `CC1(C)C(=N)N[C@](C)(c2nc(NC(=O)c3ccc(C(F)(F)F)cn3)ccc2F)CS1(=O)=O` [Example 9cf], the pKi was 7.40.
The same measure, in the same setting: the value for `CC1(CC(F)(F)F)C(=N)N[C@](C)(c2sc(-c3ccc(F)c(C#N)c3)cc2F)CS1(=O)=O` (stereo partly drawn) [Example 27bm-a] was 8.15; that for `COc1cnc(C(=O)Nc2ccc(F)c([C@]3(C)CS(=O)(=O)[C@](C)(CC(F)(F)F)C(=N)N3)c2)cn1` [Example 9dr-b] was 6.15 to 7.00.
As to `CC1(C)C(=N)N[C@](C)(c2sc(-c3cc(F)cc(-c4cnco4)c3)cc2F)CS1(=O)=O` [Example 27at], the pKi is at least 7.70.

The same test, now with this note: read-out: inhibition of BACE2 at 10 μM.
In the case of `C[C@@]1(C2CC2)C(=N)N[C@](C)(c2cc([N+](=O)[O-])ccc2F)CS1(=O)=O` [Entry 30], the inhibition at 10 µM was in the range of 29 to 47%.
In the case of `C[C@@]1(c2cccc(OCc3ccccc3)c2)C(=N)N[C@](C)(c2cc(F)ccc2F)CS1(=O)=O` [Example 34d-b], the inhibition at 10 µM was found to be 10%.
Turning to `COc1cccc([C@]2(C)C(=N)N[C@](C)(c3cc(F)ccc3F)CS2(=O)=O)c1` [Example 32e-b], the inhibition at 10 µM lay within 1 to 24%.

The values are drawn from patent US9499502B2, “5-substituted iminothiazines and their mono- and dioxides as BACE inhibitors, compositions, and their use” (Merck Sharp & Dohme Corp., priority 2011, dated 2016).
